Laboratory results as given in patent US20160354303A1, “Method, Compositions, And Kit For Modulating The Appearance Of Volume On Keratin Surfaces” (ELC MANAGEMENT LLC, priority 2014, published 2016).

System: Human subcutaneous preadipocytes
Test: Adipocyte differentiation assay: inhibition of adipogenesis, glycerol liberated from triglyceride (Zen-Bio)
Type: cell-based
Settings: for adipogenesis: inhibition in presence of 1 uM Rosiglitazone, OD at 540 nm, glycerol liberated from triglyceride, FIGS. 2 and 3
Protocol: Conjugated linoleic acid and resveratrol were tested for their ability to promote the appearance of decreased volume. Cell culture, treatment, and differentiation assay was performed by Zen-Bio, RTF, NC. Human subcutaneous preadipocytes, lot number: were cultured in 96-well plates. The donor information is as follows: • Lot #: L061103 • […] • […] • B.M.I.: 25.2 Stimulation was treated in the presence of 0.1 uM Rosiglitazone Maleate. Inhibition was treated in the presence of 1.0 uM Rosiglitazone Maleate. Day 1: Plated cells and allowed cells to adhere. Day 2: Changed medium to Initiation medium containing the compounds or controls. Day 5: Changed medium to Adipocyte medium with the compounds. Day 8: Changed medium to Adipocyte medium with the compounds. Day 11: Changed medium to Adipocyte medium with the compounds. Day 13: Cells were washed with PBS and lysed with the lysis buffer. Reagent B was added to each well and the cells were incubated at 37° C. for 2 hours. Aliquots of the lysates were diluted with PBS, then Reagent A was added to each well. The optical density was read at 540 nm after 15 minutes. The reagent measures the amount of glycerol liberated from triglyceride. Data were analyzed using a one-way ANOVA and significant means were tested by Bonferroni multiple comparison test using Instat software. Cell culture, treatment, and differentiation assay was performed by Zen-Bio, RTF, NC. Human subcutaneous preadipocytes, lot number: were cultured in 96-well plates. The donor information is as follows: • Lot#: SL0029 • Gender: Female (all lots) […] ([…]) Human subcutaneous preadipocytes were cultured in 96-well plates. Day 1: Plated cells and allowed cells to adhere. Day 2: Changed medium to Differentiation medium containing the compounds or controls. (0.1 uM Rosi for stimulation or 1 uM Rosi for inhibition) Day 9: Changed medium to Adipocyte medium plus compounds. Day 12: Changed medium to Adipocyte medium plus compounds. Day 16: Cells were washed with PBS and lysed with the lysis buffer. […] The optical density was read at 540 nm after 15 minutes. […]

| Molecule | human adipocyte generation (after treatment with resveratrol, FIG. 2 legend) | adipogenesis |
| --- | --- | --- |
| Oc1ccc(C=Cc2cc(O)cc(O)c2)cc1 [resveratrol] | decrease in human adipocyte generation | effective in reducing adipogenesis |
| conjugated linoleic acid |  | effective in reducing adipogenesis |
